Measurements taken from patent publication US20200216416A1, “QUINOLINE COMPOUNDS AS INHIBITORS OF TAM AND MET KINASES” (Array BioPharma Inc., priority 2019, published 2020).

Key:
[1] = target: T1, His-tagged recombinant human MER cytoplasmic domain (Homo sapiens, UniProt Q12866); assay: MER Enzyme Assay (LanthaScreen Eu Kinase Binding); conditions: averaged IC50; MER 5 nM; 60-minute incubation at 22° C.; TR-FRET
T1 construct: His-tagged recombinant human MER cytoplasmic domain
T1 sequence (Q12866 527-999 limits assumed): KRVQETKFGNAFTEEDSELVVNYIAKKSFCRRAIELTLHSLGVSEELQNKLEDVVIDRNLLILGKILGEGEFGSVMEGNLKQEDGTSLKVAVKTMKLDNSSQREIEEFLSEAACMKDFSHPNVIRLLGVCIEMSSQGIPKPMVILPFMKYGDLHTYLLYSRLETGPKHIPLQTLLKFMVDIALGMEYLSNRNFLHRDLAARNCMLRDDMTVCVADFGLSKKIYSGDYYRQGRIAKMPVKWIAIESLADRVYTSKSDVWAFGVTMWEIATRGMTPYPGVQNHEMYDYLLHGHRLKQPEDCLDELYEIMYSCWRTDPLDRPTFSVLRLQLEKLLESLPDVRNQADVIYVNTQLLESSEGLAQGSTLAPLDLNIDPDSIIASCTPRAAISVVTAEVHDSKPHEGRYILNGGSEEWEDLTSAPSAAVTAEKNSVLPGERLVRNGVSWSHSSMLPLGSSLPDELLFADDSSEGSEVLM
Protocol: Compounds disclosed herein were screened for their ability to inhibit […] kinase using Invitrogen's LanthaScreen™Eu Kinase Binding technology. His-tagged recombinant human MER cytoplasmic domain (5 nM) was incubated with 20 nM Alexa-Fluor® Tracer 236 (PR9078A), 2 nM biotinylated anti-His (Cat. No. M4408), and 2 nM europium-labeled Streptavidin (Cat. No. PV5899) along with test compound in a buffer consisting of 25 mM HEPES, pH 7.4, 10 mM MgCl 2, 0.01% Triton X-100, and 2% DMSO. Compounds were typically prepared in a threefold serial dilution in DMSO and added to the assay to give the appropriate final concentration. After a 60-minute incubation at 22° C., the reaction was measured using a PerkinElmer EnVision multimode plate reader via TR-FRET dual wavelength detection, and the percent of control (POC) was calculated using a ratiometric emission factor. […] The POC values are fit to a 4 parameter logistic curve and the IC50 value is point where the curve crosses 50 POC.

[2] = target: T2, GST-tagged recombinant human TYRO3 kinase domain (Homo sapiens, UniProt Q06418); assay: TYRO3 Enzyme Assay (LanthaScreen Eu Kinase Binding); conditions: averaged IC50; TYRO3 5 nM; 60-minute incubation at 22° C.; TR-FRET
T2 construct: GST-tagged recombinant human TYRO3 kinase domain; purchased Carna PR7480A
T2 sequence (Q06418 518-790 limits assumed): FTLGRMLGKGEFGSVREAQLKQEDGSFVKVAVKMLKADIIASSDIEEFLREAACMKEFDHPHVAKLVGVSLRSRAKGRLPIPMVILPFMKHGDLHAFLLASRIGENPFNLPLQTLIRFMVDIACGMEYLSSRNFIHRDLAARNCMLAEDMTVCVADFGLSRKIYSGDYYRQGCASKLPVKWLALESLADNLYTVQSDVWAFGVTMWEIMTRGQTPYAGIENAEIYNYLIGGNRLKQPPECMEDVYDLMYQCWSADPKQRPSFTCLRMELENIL
Protocol: Compounds disclosed herein were screened for their ability to inhibit TYRO3 kinase using Invitrogen's LanthaScreenTM Eu Kinase Binding technology. GST-tagged recombinant human TYRO3 kinase domain from Carna (5 nM; Cat. No. P[…]) was incubated with 20 nM Alexa-Fluor® Tracer 236 (P[…]) and 2 nM Europium-anti-GST (Cat. No. A15116) along with test compound in a buffer consisting of 25 mM HEPES, pH 7.4, 10 mM MgCl2, 0.01% Triton X-100, and 2% DMSO. Compounds are typically prepared in a threefold serial dilution in DMSO and added to the assay to give the appropriate final concentration. After a 60-minute incubation at 22° C., the reaction was measured using a PerkinElmer EnVision multimode plate reader via TR-FRET dual wavelength detection, and the percent of control (POC) calculated using a ratiometric emission factor. […] The POC values were fit to a 4 parameter logistic curve and the IC50 value is point where the curve crosses 50 POC.

[3] = target: T3, MET (wt) GST-tagged recombinant human MET kinase domain (Homo sapiens, UniProt P08581); assay: c-Met Enzyme Assay, wild type (LanthaScreen Eu Kinase Binding); conditions: averaged IC50; MET (wt) 10 nM; 60-minute incubation at 22° C.; read-out: SigChem WT IC50
T3 construct: GST-tagged recombinant human MET kinase domain; purchased Signal Chem
Protocol: (§1) The affinity of compound binding to wild type and mutant human MET kinases was measured using Invitrogen's LanthaScreen™ Eu Kinase Binding technology. Briefly, GST-tagged recombinant human MET kinase domain from Signal Chem (see Table 8 below for concentration in assay) was incubated with 50 nM Alexa-Fluor® Tracer 236 (Invitrogen Cat No. PR9078A) and 2 nM Europium-anti-GST (Invitrogen Cat. No. A15116) along with test compound in a buffer consisting of 25 mM HEPES, pH 7.4, 10 mM MgCl2, 0.01% Triton X-100, 1mM DTT, and 2% DMSO. Compounds were typically prepared in a three-fold serial dilution in DMSO and added to the assay to give the appropriate final concentration. After a 60-minute incubation at 22° C., the reaction was measured using a PerkinElmer EnVision multimode plate reader via TR-FRET dual wavelength detection, and the percent of control (POC) calculated using a ratiometric emission factor. […] The POC values were fit to a 4 parameter logistic curve and the IC50 value is point where the curve crosses 50 POC.

human MET kinase L1195V = target: T4, human MET kinase L1195V (Homo sapiens, UniProt P08581, L1195V); assay: c-Met Enzyme Assay, L1195V mutant; format: binding; conditions: averaged IC50; L1195V 10 nM; 60-minute incubation at 22° C.
T4 construct: GST-tagged recombinant human MET kinase domain; purchased Signal Chem
Protocol: as §1

human MET kinase Y1230C = target: T5, human MET kinase Y1230C (Homo sapiens, UniProt P08581, Y1230C); assay: c-Met Enzyme Assay, Y1230C mutant; format: binding; conditions: averaged IC50; Y1230C 2 nM; 60-minute incubation at 22° C.; read-out: Y1230 C IC50
T5 construct: GST-tagged recombinant human MET kinase domain; purchased Signal Chem
Protocol: as §1

human MET kinase Y1230H = target: T6, human MET kinase Y1230H (Homo sapiens, UniProt P08581, Y1230H); assay: c-Met Enzyme Assay, Y1230H mutant; format: binding; conditions: averaged IC50; Y1230H 5 nM; 60-minute incubation at 22° C.; read-out: Y1230 H IC50
T6 construct: GST-tagged recombinant human MET kinase domain; purchased Signal Chem
Protocol: as §1

T6 sequence (P08581 1078-1345 Y1230H): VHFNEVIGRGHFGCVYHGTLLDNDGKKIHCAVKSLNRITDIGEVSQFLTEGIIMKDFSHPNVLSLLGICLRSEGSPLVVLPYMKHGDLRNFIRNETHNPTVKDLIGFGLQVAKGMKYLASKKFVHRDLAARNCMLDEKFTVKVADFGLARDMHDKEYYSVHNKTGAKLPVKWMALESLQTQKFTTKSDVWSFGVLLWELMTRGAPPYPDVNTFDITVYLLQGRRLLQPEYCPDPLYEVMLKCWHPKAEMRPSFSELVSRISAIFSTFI
T5 sequence (P08581 1078-1345 Y1230C): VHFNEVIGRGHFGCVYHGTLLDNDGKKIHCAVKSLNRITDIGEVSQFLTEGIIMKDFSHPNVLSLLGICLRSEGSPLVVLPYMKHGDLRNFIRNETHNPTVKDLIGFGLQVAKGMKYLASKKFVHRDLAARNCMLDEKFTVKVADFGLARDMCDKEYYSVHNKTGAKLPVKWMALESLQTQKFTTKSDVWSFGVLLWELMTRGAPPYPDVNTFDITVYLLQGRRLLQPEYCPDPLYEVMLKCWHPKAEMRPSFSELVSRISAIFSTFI
T3 sequence (P08581 1078-1345 limits assumed): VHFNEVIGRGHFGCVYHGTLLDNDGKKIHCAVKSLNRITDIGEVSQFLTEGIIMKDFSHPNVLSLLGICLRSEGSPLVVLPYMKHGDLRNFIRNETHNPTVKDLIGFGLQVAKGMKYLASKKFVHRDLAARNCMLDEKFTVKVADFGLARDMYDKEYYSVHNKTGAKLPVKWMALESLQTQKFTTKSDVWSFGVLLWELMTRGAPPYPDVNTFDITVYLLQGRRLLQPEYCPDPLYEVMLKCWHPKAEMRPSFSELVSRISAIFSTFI
T4 sequence (P08581 1078-1345 L1195V limits assumed): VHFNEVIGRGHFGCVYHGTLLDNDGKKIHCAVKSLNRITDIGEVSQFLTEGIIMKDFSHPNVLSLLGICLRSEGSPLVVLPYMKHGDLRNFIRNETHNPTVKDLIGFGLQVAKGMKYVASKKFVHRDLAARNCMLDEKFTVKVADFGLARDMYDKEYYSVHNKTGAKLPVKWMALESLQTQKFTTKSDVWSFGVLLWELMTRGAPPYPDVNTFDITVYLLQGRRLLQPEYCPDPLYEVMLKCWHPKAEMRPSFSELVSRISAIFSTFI

SMILES	IC50 [1]	IC50 [2]	IC50 [3]	IC50 (human MET kinase L1195V)	IC50 (human MET kinase Y1230C)	IC50 (human MET kinase Y1230H)
COc1cc2nccc(Oc3ccc(NC(=O)c4cn(C)cc(-c5ccc(F)cc5)c4=O)nc3)c2cc1OC [Example 2]	3 nM	6 nM	6.4 nM	87.1 nM	9.5 nM	18.2 nM
CCn1cc(C(=O)Nc2ccc(Oc3ccnc4cc(OC)c(OC)cc34)cn2)c(=O)c(-c2ccc(F)cc2)c1 [Example 3]	3 nM	5 nM	3.2 nM	15.3 nM	4.2 nM	6.4 nM
COc1cc2nccc(Oc3ccc(NC(=O)c4cn(C(C)C)cc(-c5ccc(F)cc5F)c4=O)nc3)c2cc1OC [Example 4]	2 nM	5 nM	2.1 nM	21.9 nM	2.8 nM	4.9 nM
COCCn1cc(C(=O)Nc2ccc(Oc3ccnc4cc(OC)c(OC)cc34)cn2)c(=O)c(-c2ccc(F)cc2)c1 [Example 7, N-(5((6,7-dimethoxyquinolin-4-yl)oxy)pyridin-2-yl)-5-(4-fluorophenyl)-1-(2-methoxyethyl)-4-oxo-1,4-dihydropyridine-3-carboxamide]	3 nM	7 nM	3.1 nM	7.3 nM	2.9 nM	5.4 nM
COc1cc2nccc(Oc3ccc(NC(=O)c4cn(CC5CCOCC5)cc(-c5ccc(F)cc5)c4=O)nc3)c2cc1OC [Example 8, N-(5-((6,7-dimethoxyquinolin-4-yl)oxy)pyridin-2-yl)-5-(4-fluorophenyl)-4-oxo-1-((tetrahydro-2H-pyran-4-yl)methyl)-1,4-dihydropyridine-3-carboxamide]	4 nM	15 nM	4.1 nM	29.1 nM	7.4 nM	8.6 nM
COc1cc2nccc(Oc3ccc(NC(=O)c4cn(CC(C)(C)O)cc(-c5ccc(F)cc5)c4=O)nc3)c2cc1OC [Example 9, N-(5-((6,7-dimethoxyquinolin-4-yl)oxy)pyridin-2-yl)-5-(4-fluorophenyl)-1-(2-hydroxy-2-methylpropyl)-4-oxo-1,4-dihydropyridine-3-carboxamide]	3 nM	13 nM	2.9 nM	47.7 nM	6.2 nM	13.1 nM
CCCn1cc(C(=O)Nc2ccc(Oc3ccnc4cc(OC)c(OC)cc34)cn2)c(=O)c(-c2ccc(F)cc2)c1 [Example 10, N-(5((6,7-dimethoxyquinolin-4-yl)oxy)pyridin-2-yl)-5-(4-fluorophenyl)-4-oxo-1-propyl-1,4-dihydropyridine-3-carboxamide]	8 nM	15 nM	3.6 nM	9.7 nM	3.1 nM	6.1 nM
COc1cc2nccc(Oc3ccc(NC(=O)c4cn(CC(C)C)cc(-c5ccc(F)cc5)c4=O)nc3)c2cc1OC [Example 11, N-(5-((6,7-dimethoxyquinolin-4-yl)oxy)pyridin-2-yl)-5-(4-fluorophenyl)-1-isobutyl-4-oxo-1,4-dihydropyridine-3-carboxamide]	16 nM	33 nM	7.8 nM	21.4 nM	6.5 nM	9.3 nM
COc1cc2nccc(Oc3ccc(NC(=O)c4c[nH]cc(-c5ccc(F)cc5)c4=O)nc3)c2cc1OC [Example 26, N-(5-((6,7-dimethoxyquinolin-4yl)oxy)pyridin-2-yl)-5-(4-fluorophenyl)-4-oxo-1,4-dihydropyridine-3-carboxamide]	5 nM	15 nM	6 nM	–	6.5 nM	17 nM
COc1cc2nccc(Oc3ccc(NC(=O)c4cn(C(C)C)c(C(C)C)c(-c5ccc(F)cc5)c4=O)nc3)c2cc1OC [Example 38, N-(5-((6,7-dimethoxyquinolin-4yl)oxy)pyridin-2-yl)-5-(4-fluorophenyl)-1,6-diisopropyl-4-oxo-1,4-dihydropyridine-3-carboxamide]	6 nM	18 nM	–	–	–	–

Now from value to molecule:

IC50 [1]	IC50 [2]	IC50 [3]	IC50 (human MET kinase L1195V)	IC50 (human MET kinase Y1230C)	IC50 (human MET kinase Y1230H)	SMILES
3 nM	5 nM	2.4 nM	7.1 nM	1.5 nM	2.9 nM	COc1cc2nccc(Oc3ccc(NC(=O)c4cn(C(C)C)cc(-c5ccc(F)cc5)c4=O)nc3)c2cc1OC [Example 1]
4 nM	12 nM	6.4 nM	9.8 nM	8.1 nM	16.6 nM	COc1cc2nccc(Oc3ccc(NC(=O)c4cn(C(C)C)cc(-c5ccc(Cl)cc5)c4=O)nc3)c2cc1OC [Example 5, 5-(4-chlorophenyl)-N-(5-((6,7-dimethoxyquinolin-4-yl)oxy)pyridin-2-yl)-1-isopropyl-4-oxo-1,4-dihydropyridine-3-carboxamide]
5 nM	11 nM	8.8 nM	62.1 nM	12.4 nM	24.2 nM	COc1cc2nccc(Oc3ccc(NC(=O)c4cn(C(C)C)cc(-c5ccc(F)c(F)c5)c4=O)nc3)c2cc1OC [Example 6]
950 nM	> 1000 nM	3070 nM	–	3310 nM	1670 nM	COc1cc2nc(C)cc(Oc3ccc(NC(=O)c4cn(C(C)C)cc(-c5ccc(F)cc5)c4=O)nc3)c2cc1OC [Example 53, N-(5-((6,7-dimethoxy-2-methylquinolin-4-yl)oxy)pyridin-2-yl)-5-(4-fluorophenyl)-1-isopropyl-4-oxo-1,4-dihydropyridine-3-carboxamide]
29 nM	255 nM	297 nM	–	526 nM	789 nM	COc1cc2ncc(C#N)c(Oc3ccc(NC(=O)c4cn(C(C)C)cc(-c5ccc(F)cc5)c4=O)nc3)c2cc1OC [Example 57, N-(5-((3-cyano-6,7-dimethoxyquinolin-4-yl)oxy)pyridin-2-yl)-5-(4-fluorophenyl)-1-isopropyl-4-oxo-1,4-dihydropyridine-3-carboxamide]
